# Test results published in patent US10570176B2, “Anti-hepatitis B virus X protein polypeptide pharmaceutical” (priority 2015, dated 2020).
# Non-standard residues stand in square brackets, D forms with d. Residues, ends and D or L forms follow the SMILES beside them.
# Columns and labels:
# [1] = tested on: liver cancer HepAD38 cells integrated with HVB DNA; assay: HBeAg secretion ELISA in HepAD38 cells; assay type: cell-based
# Procedure: 3. Analysis of function of D-TTK001 on HBeAg secreation in liver cancer cells utilizing enzyme-linked immunosorbent assay (ELISA)
# (i) Biosafety cabinet was ultraviolet sterilized for 30 min and purged for 30 min; DMEM/F12 (1:1) culture medium containing 15% fetal bovine serum, HepAD38 cells (or HepG2.2.15 cells) were taken out, sterilized with 75% alcohol, and placed in the biosafety cabinet.
# (ii) Under aseptic conditions, discard old culture medium, add 3 mL 1×PBS each time, wash twice, add 1 mL 0.25% trypsin, the cells were digested until cell rounding as observed in microscope. Add 5 mL culture medium, dispense cells, count with hemocytometer, and dilute with culture medium to a cell number of 1˜2×10^4 cells/mL.
# (iii) Plating 96-well plate. Under aseptic conditions, discard old culture medium, add 3 mL 1×PBS each time, wash twice, add 1 mL 0.05% trypsin, the cells were digested until cell rounding as observed in microscope. Add 10 mL culture medium, dispense cells, count with hemocytometer, and dilute with DMEM/F12(1:1) culture medium, add 100 μL cell suspension into each well to a cell number of 1˜2×10^3 cells/mL. The outer-most wells are not added with cells. Culturing until cell attachment (usually 12 hrs.) and extension. Subsequent tests can be conducted when cells are in good condition.
# (2) Applying D-TTK001 (or L-TTK001, i.e., anti-HBxP1#) to liver cancer HepAD38 cells (or HepG2.2.15 cells)
# 10 mM D-TTK001 (or L-TTK001) mother solution was serially diluted from high concentration to low concentration, added into liver cancer HepAD38 cells (or HepG2.2.15 cells) culture solution to obtain final concentrations of D-TTK001 (or L-TTK001) of 0.1 μM, 1 μM, 10 and 100 μM in respective groups. […]
# (3) Applying ELISA to measure HBeAg content in HepAD38 cell (or HepG2.2.15 cell) culture medium
# (i) Balancing: place HBeAg assay kit in room temperature for 30 min.
# (ii) Preparing solution: dilute concentrated wash liquid for 25 times with purified water.
# (iii) Taking out the plate: take out the reaction plate according to experimental requirements (3 wells for negative control, 1 well for positive control, and 1 well for blank control).
# (iv) Adding sample: add 75 μL of test samples or negative/positive control into respective wells, gently shake and mix.
# (v) Incubating: after sealed with microplate sealer, incubate at 37° C. for 60 min.
# (vi) Adding enzyme: add 50 μL of enzyme conjugates into each well except for blank wells, gently shake and mix.
# (vii) Incubating: after sealed with microplate sealer, incubate at 37° C. for 30 min.
# (viii) Washing plate: remove microplate sealer carefully, manually wash plate for 5 times, pat dry.
# (ix) Developing color: add 50 μL each of color-developing agent A and B liquid, gently shake and mix, develop color in dark placed at 37° C. for 30 min.
# (x) Stopping: add 50 μL of stop solution into each well, gently shake and mix, measure the result in ten minutes. Set wavelength of microplate reader to 450 nm, measure OD value for each well after zero setting with blank wells.
# The invention also investigates the role of the functional variants of the polypeptide and functional fragments thereof. The sequences as shown in the following table are artificially synthesized D-amino acid substituted sequences on the basis of L-TTK001 (i.e., anti-HBxP1#). The polypeptide fragments were artificially synthesized according to the sequences (method as above), and then, above-mentioned ELISA method was adopted to observe the change in the functions of the polypeptides.
# HepAD38 cells = assay: MTT assay, proliferation of HepAD38 cells; assay type: cell-based; settings: 0.1, 1, 10, 100 μM, 48 hrs
# Procedure: (1) Plating cells: suspend HepAD38 cells at exponential phase in RPMI1640 medium with 10% FBS, and plate 4000-5000 cells in a 96-well plate with 100 μL per well.
# (2) Culturing cells: within 12 hrs. for adhesion of cultured cells, add different concentrations of synthesized D-TTK001 (or L-TTK001) polypeptides from Example 1 (0.1 μM, 1 μM, 10 μM and 100 μM) into 8 wells for each concentration, and incubate for 48 hrs. in common condition.
# (3) Coloration: add 20 μL of MTT solution (5 mg/mL MTT in PBS buffer (pH7.4)) for each well.
# (4) Incubate for 4 hrs., and carefully aspirate off the supernatant from the wells. Add 150 μL of DMSO into each well, shake for 10 min until the crystals were dissolved.
# (5) Comparison: Read in an ELISA reader at 490 nm to measure the absorbance for each well. Results were calculated using Student's t-test.
structure (smiles),measurement,setting,value
"CSCC[C@@H](NC(=O)[C@H](NC(=O)[C@@H](C)NC(=O)[C@@H](CO)NC(=O)CN)C(C)C)C(=O)N[C@H](Cc1ccccc1)C(=O)N[C@H](CO)C(=O)N[C@H](CO)C(=O)N[C@H](CCCCN)C(=O)N[C@H](CCC(=O)O)C(=O)N[C@H](CCCNC(=N)N)C(=O)NCC(=O)O [D-TTK001, Gly-D-Ser-D-Ala-D-Val-D-Met-D-Phe-D-Ser-D-Ser-D-Lys-D-Glu-D-Arg-Gly] (H-G[dS][dA][dV][dM][dF][dS][dS][dK][dE][dR]G-OH; N-terminus and C-terminus assumed)",Inhibition of HBeAg secretion levels,[1]; 10 μM,most significant effect
same,Minimum effective dose on HBeAg secretion levels,"[1]; 0.1, 1, 10, 100 μM",0.1 µM
same,Minimum effective dose on growth and proliferation (MTT),HepAD38 cells,10 µM
